Assay results reported in paper PMC9738727, “Purification and Characterization of Novel Anti-MRSA Peptides Produced by Brevibacillus sp. SPR-20” (Molecules, 2022).
Ends that are not written are not given here.

Test system: human erythrocytes
Assay: Hemolysis
Assay type: cell-based
Conditions: highest concentration with hemolysis below 10% divided by MIC
Experimental: Human blood (5 mL) from a healthy volunteer was collected in an EDTA tube. The erythrocytes were centrifuged at 700× g for 8 min and washed with PBS pH 7.4 three times. The erythrocytes were diluted with PBS pH 7.4 to reach a 0.5% v/v concentration. The suspension of erythrocytes (50 μL) was transferred to each well in a 96-well plate. The anti-MRSA peptide was dissolved and prepared by performing a 2-fold serial dilution with PBS pH 7.4 before the samples (50 μL) were added to the wells to achieve the final concentrations of 0.25–64 μg/mL. The reactions were incubated at 37 °C for 1 h, and the supernatant was collected by centrifugation at 1000× g for 10 min. The release of hemoglobin was monitored by measuring the absorbance at 540 nm. PBS pH 7.4 and 1% Triton X-100 were used as the negative and positive controls, respectively. The relative hemolysis was determined by normalizing the absorbance of the sample by that of the positive control. Each experiment was performed in three replications.

In the case of VVVNVLVKVLPPPVV [Peptide P1], the “therapeutic index of hemolysis (TIhemolysis)” value was 16.
